Patent publication US9890185B2, “Urea derivatives useful as kinase inhibitors” (Respivert Limited, priority 2013, dated 2018)

Assays:
[1] = target: p38 MAPKα isoform (MAPK14) (Homo sapiens (Human), UniProt Q16539); test: p38 MAPKα enzyme inhibition (FRET, Z-LYTE, Method 2); assay type: biochemical
Method in brief: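 Z-LYTE FRET: p38 MAPKα (80 ng/mL for Method 1, 200 ng/mL for Method 2, pre-dilution) preincubated 2 hr RT with compound (4–0.004 μg/mL solutions), activity read via MAPKAP-K2 phosphorylation after 1 hr RT and 1 hr protease development. Coumarin/fluorescein ratio gives phosphorylation; % inhibition versus uninhibited control, IC50 from concentration-response curve.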

c-Src = c-Src (Homo sapiens (Human), UniProt P12931); test: c-Src enzyme inhibition (FRET, Z-LYTE); assay type: biochemical
Sequence of c-Src (P12931 whole entry, looked up): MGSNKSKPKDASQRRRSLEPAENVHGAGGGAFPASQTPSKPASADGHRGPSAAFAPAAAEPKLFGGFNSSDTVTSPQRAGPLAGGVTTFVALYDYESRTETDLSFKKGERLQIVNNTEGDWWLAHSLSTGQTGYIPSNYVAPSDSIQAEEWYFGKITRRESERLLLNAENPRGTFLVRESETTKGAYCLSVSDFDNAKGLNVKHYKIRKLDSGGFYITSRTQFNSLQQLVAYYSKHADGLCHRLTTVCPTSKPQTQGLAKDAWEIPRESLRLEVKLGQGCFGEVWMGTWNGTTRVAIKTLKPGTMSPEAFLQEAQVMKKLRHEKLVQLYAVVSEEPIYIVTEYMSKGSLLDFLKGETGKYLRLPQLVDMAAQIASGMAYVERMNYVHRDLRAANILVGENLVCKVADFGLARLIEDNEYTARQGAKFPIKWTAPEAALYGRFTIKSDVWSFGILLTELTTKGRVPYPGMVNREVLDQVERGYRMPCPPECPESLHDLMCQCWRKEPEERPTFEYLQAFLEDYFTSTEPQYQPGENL
Method in brief: (§1)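 Enzyme (c-Src 3000 ng/mL, Syk 2000 ng/mL, as added solutions) was preincubated with compound for 2 hr at RT, then FRET peptide and ATP (added solution 800 μM for c-Src, 60 μM for Syk) for 1 hr. Protease development 1 hr; coumarin/fluorescein emission ratio gave % inhibition, IC50 from concentration-response.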

Syk = Syk (Homo sapiens (Human), UniProt P43405); test: Syk enzyme inhibition (FRET, Z-LYTE); assay type: biochemical
Method in brief: as §1

GSK 3α = GSK 3α (Homo sapiens (Human), UniProt P49840); test: GSK 3α enzyme inhibition (FRET, Z-LYTE, Method 2); assay type: biochemical; conditions: read-out: IC50 Values for Enzyme Inhibition, GSK3α
Sequence of GSK 3α (P49840 whole entry): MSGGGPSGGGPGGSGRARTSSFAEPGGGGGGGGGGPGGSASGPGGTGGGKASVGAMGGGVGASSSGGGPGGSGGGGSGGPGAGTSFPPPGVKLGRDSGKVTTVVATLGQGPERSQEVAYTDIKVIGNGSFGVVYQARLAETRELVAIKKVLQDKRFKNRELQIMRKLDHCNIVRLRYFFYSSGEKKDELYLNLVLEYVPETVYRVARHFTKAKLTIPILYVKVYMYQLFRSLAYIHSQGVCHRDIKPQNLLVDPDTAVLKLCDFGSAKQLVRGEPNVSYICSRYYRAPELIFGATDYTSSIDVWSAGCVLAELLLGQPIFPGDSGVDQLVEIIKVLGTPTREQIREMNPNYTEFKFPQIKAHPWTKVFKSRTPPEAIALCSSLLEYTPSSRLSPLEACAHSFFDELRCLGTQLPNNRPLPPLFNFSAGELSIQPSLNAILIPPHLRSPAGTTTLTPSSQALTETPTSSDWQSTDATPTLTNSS
Method in brief: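 Human GSK3α (500 ng/mL) preincubated with compound (4, 0.4, 0.04 or 0.004 μg/mL) at RT for 2 h (Method 1) or 105 min (Method 2). Then FRET peptide (8 μM) and ATP (40 μM) added for 1 h, followed by protease development for 1 h. IC50 from the coumarin/fluorescein emission ratio relative to uninhibited control.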

PBMCs [2] = test: LPS-induced IL-8 release in PBMC cells (assay b); assay type: cell-based, human; conditions: Homo sapiens, PBMC; LPS-stimulated PBMCs; read-out: IC50 Values for Inhibition of Cytokine Release, PBMCs IL-8
Method in brief: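 Human PBMCs from healthy donors, isolated by density gradient, were pretreated with compound for 2 h and then stimulated with 1 ng/mL LPS (E. coli 0111:B4) for 24 h at 37° C, 5% CO2. Supernatant IL-8 and TNFα were measured by sandwich ELISA, and IC50 was taken from the dose-response curve.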

PBMCs [3] = test: IL-2 release in CD3/CD28 stimulated PBMC cells (assay c); assay type: cell-based; conditions: Homo sapiens, read-out: IC50 Values for Inhibition of Cytokine Release, PBMCs IL-2
Method in brief: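 Sandwich ELISA of supernatant IL-2 and IFN gamma; IC50 from dose-response curve. Cells: density-gradient PBMCs from healthy subjects on plate-bound anti-CD3 0.3 μg/mL + anti-CD28 3 μg/mL, compound added, 3 d culture.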

PBMCs [4] = test: Cell mitosis assay in PBMCs (assay g); assay type: cell-based; conditions: Homo sapiens, PBMC, test compound 5 μg/mL
Method in brief: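 Human PBMCs from healthy donors, stimulated with 2% PHA for 48 hr, then exposed to test compounds for 20 hr, with demecolcine (0.1 μg/mL) added 2 hr before harvest. Cells fixed/permeabilised, stained for phospho-histone 3 and propidium iodide, and read by flow cytometry gated on lymphocytes. % mitosis inhibition vs 0.5% DMSO vehicle.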

Sequence of p38 MAPKα isoform (MAPK14) (Q16539 whole entry, canonical isoform): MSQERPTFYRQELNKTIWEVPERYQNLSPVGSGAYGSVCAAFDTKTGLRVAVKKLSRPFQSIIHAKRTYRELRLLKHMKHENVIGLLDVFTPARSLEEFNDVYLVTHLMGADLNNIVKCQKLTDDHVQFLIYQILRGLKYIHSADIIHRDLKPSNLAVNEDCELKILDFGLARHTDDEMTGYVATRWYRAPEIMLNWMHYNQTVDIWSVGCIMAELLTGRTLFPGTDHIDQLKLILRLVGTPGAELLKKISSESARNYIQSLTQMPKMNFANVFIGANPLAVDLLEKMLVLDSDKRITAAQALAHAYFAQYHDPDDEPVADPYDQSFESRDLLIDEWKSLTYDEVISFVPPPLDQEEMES

Row | Structure (SMILES) | IC50 [1] [nM] | IC50 (c-Src) [nM] | IC50 (Syk) [nM] | IC50 (GSK 3α) [nM] | IC50 (PBMCs [2]) [nM] | IC50 (PBMCs [3]) [nM] | inhibition at 5 µg/mL (PBMCs [4]) [%]
1 | COCCOCCOCCOc1cc(Nc2cc(Oc3ccc(NC(=O)Nc4cc(C(C)(C)C)cc(P(C)(C)=O)c4OC)c4ccccc34)ccn2)cc(OC)c1 [Example 2, 1-(5-(tert-Butyl)-3-(dimethylphosphoryl)-2-methoxyphenyl)-3-(4-((2-((3-methoxy-5-(2-(2-(2-methoxyethoxy)ethoxy)ethoxy)phenyl)amino)pyridin-4-yl)oxy)naphthalen-1-yl)urea] | 51 | 11 | 53 | 2820 | 1 | 76.1 | 58.9
2 | COCCOCCOCCOc1cc(Nc2nccc(Oc3ccc(NC(=O)Nc4cc(C(C)(C)C)cc(C(=O)NCCN5CCOCC5)c4OC)c4ccccc34)n2)cc(OC)c1 [Example 8, 5-(tert-Butyl)-2-methoxy-3-(3-(4-((2-((3-methoxy-5-(2-(2-(2-methoxyethoxy)ethoxy)-ethoxy)phenyl)amino)pyrimidin-4-yl)oxy)naphthalen-1-yl)ureido)-N-(2-morpholinoethyl)-benzamide] | 188 | 14 | 42 | 788 | 1.3 | 41.4 | 58.1
3 | COCCOCCOCCOc1cc(Nc2cc(Oc3ccc(NC(=O)Nc4cc(C(C)(C)C)cc(S(C)(=O)=O)c4OC)c4ccccc34)ccn2)cc(OC)c1 [Example 9, 1-(5-(tert-Butyl)-2-methoxy-3-(methylsulfonyl)phenyl)-3-(4-((2-((3-methoxy-5-(2-(2-(2-methoxyethoxy)ethoxy)ethoxy)phenyl)amino)pyridin-4-yl)oxy)naphthalen-1-yl)urea] | 290 | 52 | 233 | > 10700 | 3.5 | 42.7 | 50.8
4 | COc1c(CC(N)=O)cc(C(C)(C)C)cc1NC(=O)Nc1ccc(Oc2ccnc(Nc3ccccc3)c2)c2ccccc12 [Example 13, 2-(5-(tert-Butyl)-2-methoxy-3-(3-(4-((2-(phenylamino)pyridin-4-yl)oxy)naphthalen-1-yl)ureido)phenyl)acetamide] | 108 | 239 | 1390 | 7580 | 6.4 | 204 | 13.9
5 | COc1c(NC(=O)Nc2ccc(Oc3ccnc(Nc4ccccc4)c3)c3ccccc23)cc(C(C)(C)C)cc1C(=O)NCCN1CCOCC1 [Example 14, 5-(tert-Butyl)-2-methoxy-N-(2-morpholinoethyl)-3-(3-(4-((2-(phenylamino)pyridin-4-yl)oxy)naphthalen-1-yl)ureido)benzamide] | 392 | 135 | 364 | > 10100 | 3.3 | 39.2 | 51.9
6 | COCCOCCOCCOc1cc(Nc2cc(Oc3ccc(NC(=O)Nc4cc(C(C)(C)C)cc(C(=O)NCCN5CCOCC5)c4OC)c4ccccc34)ccn2)cc(OC)c1 [Example 16, 5-(tert-Butyl)-2-methoxy-3-(3-(4-((2-((3-methoxy-5-(2-(2-(2-methoxyethoxy)ethoxy)ethoxy)-phenyl)amino)pyridin-4-yl)oxy)naphthalen-1-yl)ureido)-N-(2-morpholinoethyl)benzamide] | 230 | 40 | 93 | 5670 | 1.7 | 7.7 | 43.3
7 | COc1cc(Nc2nccc(Oc3ccc(NC(=O)Nc4cc(C(C)(C)C)cc(OCP(C)(C)=O)c4OC)c4ccccc34)n2)cc(OC)c1 [Example 20, 1-(5-(tert-Butyl)-3-((dimethylphosphoryl)methoxy)-2-methoxyphenyl)-3-(4-((2-((3,5-dimethoxyphenyl)amino)pyrimidin-4-yl)oxy)naphthalen-1-yl)urea] | 368 | 33 | 188 | 2060 | 2.5 | 10.5 | 55
8 | COc1c(C[S+](C)[O-])cc(C(C)(C)C)cc1NC(=O)Nc1ccc(Oc2ccnc(Nc3ccccc3)c2)c2ccccc12 (centres unmarked) [Example 25, 1-(5-(tert-Butyl)-2-methoxy-3-((methylsulfinyl)methyl)phenyl)-3-(4-((2-(phenylamino)pyridin-4-yl)oxy)naphthalen-1-yl)urea] | 323 | 224 | 724 | 9620 | 5.3 | 175 | 24.5

More lines, main results first:

Row | IC50 [1] [nM] | IC50 (c-Src) [nM] | IC50 (Syk) [nM] | IC50 (GSK 3α) [nM] | Structure (SMILES) | IC50 (PBMCs [2]) [nM] | IC50 (PBMCs [3]) [nM] | inhibition at 5 µg/mL (PBMCs [4]) [%]
9 | 91 | 38 | > 1220 | 4900 | C#Cc1cc(Nc2cc(Oc3ccc(NC(=O)Nc4cc(C(C)(C)C)cc(P(C)(C)=O)c4OC)c4ccccc34)ccn2)cc(C(=O)NCCOCCOCCOC)c1 [Example 3, 3-((4-((4-(3-(5-(tert-Butyl)-3-(dimethylphosphoryl)-2-methoxyphenyl)ureido)naphthalen-1-yl)oxy)pyridin-2-yl)amino)-5-ethynyl-N-(2-(2-(2-methoxyethoxy)ethoxy)ethyl)benzamide] | 2.8 | 181 | 29.4
10 | 45 | 16 | > 887 | > 8340 | COCCOCCOCCOc1cc(Nc2cc(Oc3ccc(NC(=O)Nc4cc(C(C)(C)C)cc(P(C)(C)=O)c4)c4ccccc34)ccn2)cc(OC)c1 [Example 10, 1-(3-(tert-Butyl)-5-(dimethylphosphoryl)phenyl)-3-(4-((2-((3-methoxy-5-(2-(2-(2-methoxy-ethoxy)ethoxy)ethoxy)phenyl)amino)pyridin-4-yl)oxy)naphthalen-1-yl)urea] | 2 | 88.6 | 39.3
11 | 141 | 32 | 186 | 3830 | COc1c(NC(=O)Nc2ccc(Oc3ccnc(Nc4ccccc4)c3)c3ccccc23)cc(C(C)(C)C)cc1P(C)(C)=O [Example 11, 1-(5-(tert-Butyl)-3-(dimethylphosphoryl)-2-methoxyphenyl)-3-(4-((2-(phenylamino)pyridin-4-yl)oxy)naphthalen-1-yl)urea] | 2.3 | 80.6 | 61
12 | 68 | 30 | 134 | 10300 | COCCOCCOCCOc1cc(Nc2cc(Oc3ccc(NC(=O)Nc4cc(C(C)(C)C)cc([S+](C)[O-])c4OC)c4ccccc34)ccn2)cc(OC)c1 (centres unmarked) [Example 17, 1-(5-(tert-Butyl)-2-methoxy-3-(methylsulfinyl)phenyl)-3-(4-((2-((3-methoxy-5-(2-(2-(2-methoxyethoxy)ethoxy)ethoxy)phenyl)amino)pyridin-4-yl)oxy)naphthalen-1-yl)urea] | 0.9 | 30.5 | 41.3
13 | 208 | 145 | 189 | > 16000 | COc1c(CS(C)(=O)=O)cc(C(C)(C)C)cc1NC(=O)Nc1ccc(Oc2ccnc(Nc3ccccc3)c2)c2ccccc12 [Example 19, 1-(5-(tert-Butyl)-2-methoxy-3-((methylsulfonyl)methyl)phenyl)-3-(4-((2-(phenylamino)pyridin-4-yl)oxy)naphthalen-1-yl)urea] | 6.2 | 257 | 36.9
14 | 220 | 168 | 289 | 7450 | COc1c(CP(C)(C)=O)cc(C(C)(C)C)cc1NC(=O)Nc1ccc(Oc2ccnc(Nc3ccccc3)c2)c2ccccc12 [Example 24, 1-(5-(tert-Butyl)-3-((dimethylphosphoryl)methyl)-2-methoxyphenyl)-3-(4-((2-(phenylamino)-pyridin-4-yl)oxy)naphthalen-1-yl)urea] | 3.1 | 276 | 37.9
